Drawing on patent publication US20230295201A1 (Gilead Sciences, Inc., priority 2020, published 2023), this text covers EC50 for 15 compounds.

What all share (type): cell-based
One experiment relates to RSV A2. The experiment can be described thus: RSV NHBE EC50 (RSV A2 antiviral assay in normal human bronchial epithelial cells). Conditions: read-out: RSV NHBE EC50.
The test system of a further experiment is DENV2 replicon. The experiment can be described thus: DENV-2 Huh-7 Rep EC50 (replicon luminescence). The settings on record: read-out: DENV-2 Huh-7 Rep EC50. The gist of the method: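 EC50 derived from luminescence dose-response, normalised to DMSO-only 0% inhibition wells, after 1.5 h with EnduRen substrate. Compounds were first exposed for 48 h at 37° C to DENV2 replicon Huh-7 cells (5,000/well).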

The subject of the next experiment is HRV16. The experiment can be described thus: HRV16 HELA EC50 (cytopathic effect in H1-HeLa cells). In outline:
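Read-out is luminescent cell viability (CellTiter-Glo) after 96 h of infection at 33 °C, scaled between uninfected and infected-untreated wells. Before infection with titrated virus, compounds went onto H1-HeLa cells as triplicate 3-fold dilution series.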

In a further experiment the test system is RSV strain A2. The experiment can be described thus: RSV HEp-2 EC50 (infectious cytopathic cell protection assay). Conditions: read-out: RSV HEp-2 EC50. In outline: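 Percent inhibition of RSV-induced cytopathic effect came from remaining cell viability (CellTiter-Glo luminescence) after 4 days at 37° C. Compounds in 3-fold serial dilutions were exposed to an infectious mix of titered A2 virus and HEp-2 cells at 50,000/ml, with 0% and 100% inhibition control standards.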

[1] abbreviates: Dengue virus, DENV2, Huh-7, 48 h, Huh-7 replicon cells, 48 hours.
The mark [2] stands for this setting: 96 h, H1-HeLa cells, 33° C., read-out: HRV16 HELA EC50.
[3] abbreviates: human respiratory syncytial virus, HEp-2, 96 h, HEp-2 cells, RSV A2, 4 days.
Where [4] appears, read: human respiratory syncytial virus, NHBE, 96 h, NHBE cells, RSV A2, 4 days.
Setting [5] is: H1-HeLa cells, 96 h, 33° C.; read-out: HRV16 HELA EC50.
The mark [6] stands for this setting: human respiratory syncytial virus, 96 h, NHBE cells, RSV A2, 4 days.
Setting [7] is: Dengue virus, DENV2, Huh-7, 48 h.
Setting [8] is: human respiratory syncytial virus, 96 h, HEp-2 cells, RSV A2, 4 days.

Like-named read-outs stand apart in the source and are kept apart here.

By EC50 is commonly meant the midpoint of the concentration-response curve. With `COCCOc1ccc(OP(=O)(N[C@@H](C)C(=O)OC(C)C)OC[C@@]2(C#N)O[C@@H](c3ccc4c(N)ncnn34)[C@H](O)[C@@H]2O)cc1` (stereo partly drawn) [Example 53], the EC50 in the experiment on RSV A2 (human respiratory syncytial virus, NHBE, in Homo sapiens, 96 h, NHBE cells, RSV A2, 4 days) is no less than 5000 nM; in the experiment on DENV2 replicon (setting [1]), greater than 50 µM; with HRV16 (setting [2]), 15.5 µM; with RSV strain A2 (setting [3]), 2360 nM.

For `C[C@H](NP(=O)(OC[C@@]1(C#N)O[C@@H](c2ccc3c(N)ncnn23)[C@H](O)[C@@H]1O)Oc1ccccc1)C(=O)OC1CCOCC1` (stereo partly drawn) [Example 55, tetrahydro-2H-pyran-4-yl ((((2R,3S,4R,5S)-5-(4-aminopyrrolo[2,1-f][1,2,4]triazin-7-yl)-2-cyano-3,4-dihydroxytetrahydrofuran-2-yl)methoxy)(phenoxy)phosphoryl)-L-alaninate], the EC50 in the experiment on RSV A2 (setting [4]) is 4300 nM; in the experiment with DENV2 replicon (setting [1]), greater than 50 µM; in the experiment on HRV16 (setting [2]), 6.91 µM; with RSV strain A2 (setting [3]) it was 570 nM.

In the case of `CCC(CC)COC(=O)[C@@H](C)NP(=O)(OC[C@@]1(C#N)O[C@@H](c2ccc3c(N)ncnn23)[C@H](O)[C@@H]1O)Oc1ccccc1` (single isomer, unassigned) [Example 84], the half-maximal effective concentration (EC50) with RSV A2 (NHBE cells, RSV A2, 4 days) is 1130 nM; with DENV2 replicon (Huh-7 replicon cells, 48 hours), greater than 50 µM; in the experiment with HRV16 (setting [5]) it was 19.9 µM; in the experiment on RSV strain A2 (HEp-2 cells, RSV A2, 4 days), 8070 nM.

Turning to `CC[C@H](N[P@](=O)(OC[C@@]1(C#N)O[C@@H](c2ccc3c(N)ncnn23)[C@H](O)[C@@H]1O)Oc1ccccc1)C(=O)OC1CCCCC1` [Example 105], the EC50 in the experiment on RSV A2 (NHBE cells, RSV A2, 4 days) was 2020 nM; in the experiment with DENV2 replicon (Huh-7 replicon cells, 48 hours), greater than 50 µM; in the experiment with HRV16 (setting [5]), 16.9 µM; in the experiment on RSV strain A2 (HEp-2 cells, RSV A2, 4 days), 3440 nM.

For `CCCCCCCCCCCCCCCCOC(=O)[C@H](C)NP(=O)(OC[C@@]1(C#N)O[C@@H](c2ccc3c(N)ncnn23)[C@H](O)[C@@H]1O)Oc1ccccc1` (stereo partly drawn) [Example 199, hexadecyl ((((2R,3S,4R,5S)-5-(4-aminopyrrolo[2,1-f][1,2,4]triazin-7-yl)-2-cyano-3,4-dihydroxytetrahydrofuran-2-yl)methoxy)(phenoxy)phosphoryl)-L-alaninate], the EC50 came to 33 nM with RSV A2 (setting [4]), 37.8 µM in the experiment with DENV2 replicon (setting [1]), 0.738 µM with HRV16 (setting [2]) and 1120 nM with RSV strain A2 (setting [3]).

`CCCCOC(=O)CC[C@H](NP(=O)(OC[C@@]1(C#N)O[C@@H](c2ccc3c(N)ncnn23)[C@H](O)[C@@H]1O)Oc1ccccc1)C(=O)OC1CCCCC1` (stereo partly drawn) [Example 229, 5-butyl 1-cyclohexyl ((((2R,3S,4R,5S)-5-(4-aminopyrrolo [2,1-f][1,2,4]triazin-7-yl)-2-cyano-3,4-dihydroxytetrahydrofuran-2-yl)methoxy)(phenoxy)phosphoryl)-L-glutamate]: the EC50 was greater than 5000 nM in the experiment on RSV A2 (setting [4]), 31.4 µM in the experiment with DENV2 replicon (setting [1]), greater than 40.2 µM in the experiment with HRV16 (setting [2]) and greater than 13300 nM in the experiment with RSV strain A2 (setting [3]).

In the case of `CCCCOC(=O)[C@H](C)NP(=O)(N[C@@H](C)C(=O)OCCCC)OC[C@@]1(C#N)O[C@@H](c2ccc3c(N)ncnn23)[C@H](O)[C@@H]1O` [Example 218], the EC50 in the experiment on RSV A2 (setting [6]) is 280 nM; in the experiment on DENV2 replicon (setting [7]), greater than 50 µM; with HRV16 (setting [5]), 11.3 µM; in the experiment on RSV strain A2 (setting [8]) it was 1160 nM.

Turning to `CC(C)C(=O)Nc1ncnn2c([C@@H]3O[C@](C#N)(CO[P@@](=O)(N[C@@H](C)C(=O)OC4CCCCC4)Oc4ccccc4)[C@@H](O)[C@H]3O)ccc12` [Example 235, cyclohexyl ((S)-(((2R,3S,4R,5S)-2-cyano-3,4-dihydroxy-5-(4-isobutyramidopyrrolo[2,1-f][1,2,4]triazin-7-yl)tetrahydrofuran-2-yl)methoxy)(phenoxy)phosphoryl)-L-alaninate], the EC50 stood at 510 nM with RSV A2 (setting [4]), 3.96 µM with DENV2 replicon (setting [1]), 1.1 µM in the experiment with HRV16 (setting [2]) and 114 nM in the experiment on RSV strain A2 (setting [3]).

Turning to `COCCOP(=O)(N[C@@H](C)C(=O)OC(C)C)OC[C@@]1(C#N)O[C@@H](c2ccc3c(N)ncnn23)[C@H](O)[C@@H]1O` (stereo partly drawn) [Example 41, isopropyl ((((2R,3S,4R,5S)-5-(4-aminopyrrolo[2,1-f][1,2,4]triazin-7-yl)-2-cyano-3,4-dihydroxytetrahydrofuran-2-yl)methoxy)(2-methoxyethoxy)phosphoryl)-L-alaninate], the EC50 was no less than 5000 nM in the experiment on RSV A2 (setting [6]), greater than 50 µM in the experiment on DENV2 replicon (setting [7]), greater than 50 µM with HRV16 (setting [5]) and greater than 50000 nM with RSV strain A2 (setting [8]).

On to `CCCOC(=O)[C@H](C)N[P@](=O)(OC[C@@]1(C#N)O[C@@H](c2ccc3c(N)ncnn23)[C@H](O)[C@@H]1O)Oc1ccccc1` [Example 45, propyl ((S)-(((2R,3S,4R,5S)-5-(4-aminopyrrolo[2,1-f][1,2,4]triazin-7-yl)-2-cyano-3,4-dihydroxytetrahydrofuran-2-yl)methoxy)(phenoxy)phosphoryl)-L-alaninate], for which the half-maximal effective concentration (EC50) was 248 nM in the experiment on RSV A2 (setting [4]), 9.66 µM in the experiment with DENV2 replicon (setting [1]), 0.375 µM in the experiment on HRV16 (setting [2]) and 55 nM in the experiment on RSV strain A2 (setting [3]).

As to `C[C@H](NP(=O)(OC[C@@]1(C#N)O[C@@H](c2ccc3c(N)ncnn23)[C@H](O)[C@@H]1O)Oc1ccccc1)C(=O)OC1CCC(F)(F)CC1` (single isomer, unassigned) [Example 176], the half-maximal effective concentration (EC50) in the experiment on RSV A2 (NHBE cells, RSV A2, 4 days) was determined as 1640 nM; in the experiment with DENV2 replicon (Huh-7 replicon cells, 48 hours), 28.6 µM; with HRV16 (setting [2]) it was 0.547 µM; in the experiment with RSV strain A2 (HEp-2 cells, RSV A2, 4 days), 161 nM.

In the case of `CCOC(=O)c1ccccc1OP(=O)(OC[C@@]1(C#N)O[C@@H](c2ccc3c(N)ncnn23)[C@H](O)[C@@H]1O)Oc1ccccc1C(=O)OCC` [Example 209, ((2R,3S,4R,5S)-5-(4-aminopyrrolo[2,1-f][1,2,4]triazin-7-yl)-2-cyano-3,4-dihydroxytetrahydrofuran-2-yl)methyl bis-2-ethylbenzoate phosphate], the half-maximal effective concentration (EC50) in the experiment with RSV A2 (human respiratory syncytial virus, NHBE, 96 h) was greater than 5000 nM; in the experiment with DENV2 replicon (setting [7]), greater than 50 µM; in the experiment on HRV16 (96 h, read-out: HRV16 HELA EC50), 16.7 µM; in the experiment on RSV strain A2 (human respiratory syncytial virus, HEp-2, 96 h) it was 1460 nM.

On to `C[C@H](NP(=O)(N[C@@H](C)C(=O)OCC1CCC1)OC[C@@]1(C#N)O[C@@H](c2ccc3c(N)ncnn23)[C@H](O)[C@@H]1O)C(=O)OCC1CCC1` [Example 36, (2R,3S,4R,5S)-5-(4-aminopyrrolo[2,1-f][1,2,4]triazin-7-yl)-2-cyano-3,4-dihydroxytetrahydrofuran-2-yl)methyl bis-cyclobutylmethyl L-alaninate phosphate], for which the half-maximal effective concentration (EC50) in the experiment with RSV A2 (setting [6]) was 312 nM; in the experiment with DENV2 replicon (setting [7]) it was greater than 50 µM; with HRV16 (setting [5]), 10.7 µM; with RSV strain A2 (setting [8]), 1440 nM.

Regarding `N#C[C@]1(COP(=O)(NCC(=O)OC2CCCC2)Oc2ccccc2)O[C@@H](c2ccc3c(N)ncnn23)[C@H](O)[C@@H]1O` (single isomer, unassigned) [Example 114], the half-maximal effective concentration (EC50) in the experiment with RSV A2 (NHBE cells, RSV A2, 4 days) is 255 nM; in the experiment with DENV2 replicon (Huh-7 replicon cells, 48 hours), greater than 50 µM; with HRV16 (setting [5]) it was 4.7 µM; in the experiment on RSV strain A2 (HEp-2 cells, RSV A2, 4 days), 974 nM.

For `C[C@H](NP(=O)(OC[C@@]1(C#N)O[C@@H](c2ccc3c(N)ncnn23)[C@H](O)[C@@H]1O)Oc1ccccc1)C(=O)OC1CCCCCCC1` (stereo partly drawn) [Example 171, cyclooctyl ((((2R,3S,4R,5S)-5-(4-aminopyrrolo[2,1-f][1,2,4]triazin-7-yl)-2-cyano-3,4-dihydroxytetrahydrofuran-2-yl)methoxy)(phenoxy)phosphoryl)-L-alaninate], the EC50 in the experiment with RSV A2 (setting [4]) amounted to 375 nM; with DENV2 replicon (setting [1]) it was 31.5 µM; in the experiment with HRV16 (setting [2]) it was 0.582 µM; with RSV strain A2 (setting [3]) it was 220 nM.
